From US20260022143A1, “Cyclic Peptide Inhibitors of IL-23” (JANSSEN PHARMACEUTICA NV, priority 2022, published 2026)
Starred links: 1 amine or outer side, 2 acyl side, 3 side chain; linkers in the order of their positions; H or OH if unused. Positions of bridges follow the written chain, without caps; N, C: chain ends. Non-standard residues stand in square brackets, D forms with d. Residues, ends and D or L forms follow the SMILES beside them. *: point of attachment. Me3N+(CH2)2O(CH2)2O(CH2)2CO = C[N+](C)(C)CCOCCOCCC(=O)*; Trp(7-Me) = Cc1cccc2c(C[C@H](N)C(=O)O)c[nH]c12; Abu(4-yl) = O=C([C@H](CC[*:3])N[*:1])[*:2]; dLys(Me3) = C[N+](C)(C)CCCC[C@@H](N)C(=O)O; 3Pal(5-Me) = Cc1cncc(C[C@H](N)C(=O)O)c1; 2Nal = N[C@@H](Cc1ccc2ccccc2c1)C(=O)O; AEF = NCCOc1ccc(C[C@H](N)C(=O)O)cc1; 3Pal = N[C@@H](Cc1cccnc1)C(=O)O; Lys(Me) = CNCCCC[C@H](N)C(=O)O; Pen = CC(C)(S)[C@H](N)C(=O)O; Thp = NC1(C(=O)O)CCOCC1; X3 = C[N+](C)(C)CCCCC*; Sar = CNCC(=O)O; X58 = NCCCCC*

Legend:
[1] = Exposed Polar Surface Area (EPSA); type: physicochemical; settings: SFC on Chirex 3014 column; sample 1 mM DMSO stock; read-out: EPSA
In short: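 Polarity descriptor in Å² derived from retention time using 8 calibration standards re-run every 20 compounds. Duplicate injections of 1 mM DMSO stock; linear 5–60% modifier gradient (20 mM ammonium formate in MeOH) with CO2 at 4 mL/min, 35 °C, on a Chirex 3014 column.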

IL-23R = molecular target: T1, IL-23R (Homo sapiens, UniProt Q5VWK5); assay: IL23R Reporter Assay; type: cell-based; settings: HEK293 cells containing IL-23R, IL-12RP1 and STAT-inducible firefly luciferase reporter; 10 ng/mL IL-23 (EC90); 5 h at 37° C.; read-out: IL23R Reporter Assay
T1 construct: host or cells: HEK293
T1 sequence (Q5VWK5 24-629): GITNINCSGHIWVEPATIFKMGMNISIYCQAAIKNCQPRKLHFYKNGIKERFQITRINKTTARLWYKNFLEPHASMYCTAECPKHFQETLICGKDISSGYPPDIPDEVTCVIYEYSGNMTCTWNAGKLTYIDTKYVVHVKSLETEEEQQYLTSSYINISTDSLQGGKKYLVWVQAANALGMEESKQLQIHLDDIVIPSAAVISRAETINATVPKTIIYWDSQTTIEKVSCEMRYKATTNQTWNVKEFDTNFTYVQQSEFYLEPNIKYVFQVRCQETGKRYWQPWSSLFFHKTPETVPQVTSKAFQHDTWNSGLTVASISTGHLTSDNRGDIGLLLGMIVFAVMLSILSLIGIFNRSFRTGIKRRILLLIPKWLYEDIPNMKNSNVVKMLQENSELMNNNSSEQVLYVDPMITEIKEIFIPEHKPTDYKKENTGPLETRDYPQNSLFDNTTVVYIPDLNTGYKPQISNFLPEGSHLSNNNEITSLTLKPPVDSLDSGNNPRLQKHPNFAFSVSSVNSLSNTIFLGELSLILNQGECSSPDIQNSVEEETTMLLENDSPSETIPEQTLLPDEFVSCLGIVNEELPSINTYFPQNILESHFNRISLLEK

CC(=O)N(C)CCCC[C@@H]1NC(=O)[C@H](Cc2c[nH]c3c(C)cccc23)NC(=O)[C@H]([C@@H](C)O)NC(=O)[C@H](CC(=O)N(C)C)NC(=O)[C@@H](NC(=O)CCOCCOCC[N+](C)(C)C)CCSC[C@@H](C(=O)N[C@@H](Cc2ccc(OCCCCC[N+](C)(C)C)cc2)C(=O)N[C@@H](Cc2ccc3ccccc3c2)C(=O)NC2(C(=O)N[C@@H](CCCCN(C)C(C)=O)C(=O)N[C@@H](CC(N)=O)C(=O)N[C@@H](Cc3cccnc3)C(=O)N(C)CC(=O)N(C)C)CCOCC2)NC1=O [compound 523, cPEG3aCO-Abu(1)-N(N(Me)2)-T-7MeW-K(NMeAc)-C(1)-TMAPF-2Nal-THP-K(NMeAc)-N-3Pya-Sar-CON(Me)2] ({Me3N+(CH2)2O(CH2)2O(CH2)2CO}-[Abu(4-yl)]D(NMe2)T[Trp(7-Me)][Lys(Me)](Ac)CY(X3)[2Nal][Thp][Lys(Me)](Ac)N[3Pal][Sar]-NMe2; thioether 1-6)
EPSA [1]: 154 A^2 | IC50 (IL-23R): 5.2 nM

CC(=O)NCCCC[C@@H]1NC(=O)[C@H](Cc2c[nH]c3c(C)cccc23)NC(=O)[C@H]([C@@H](C)O)NC(=O)[C@H](CC(N)=O)NC(=O)[C@@H](NC(=O)COc2ccc(-c3ccc(F)cc3F)cc2C(=O)O)C(C)(C)SSC(C)(C)[C@@H](C(=O)N[C@@H](Cc2ccc(OCCCCC[N+](C)(C)C)cc2)C(=O)N[C@@H](Cc2ccc3ccccc3c2)C(=O)NC2(C(=O)N[C@@H](CCCCNC(=O)CCCc3ccc(I)cc3)C(=O)N[C@@H](CC(N)=O)C(=O)N[C@@H](Cc3cccnc3)C(=O)N(C)CC(N)=O)CCOCC2)NC1=O [compound 524, DFNCO-Pen(3)-N-T-7MeW-K(Ac)-Pen(3)-TMAPF-2Nal-THP-K(IPB)-N-3Pya-Sar-CONH2]
EPSA [1]: 198 A^2 | IC50 (IL-23R): 54 nM

CC(=O)NCCCC[C@@H]1NC(=O)[C@H](Cc2c[nH]c3c(C)cccc23)NC(=O)[C@H]([C@@H](C)O)NC(=O)[C@H](CC(N)=O)NC(=O)[C@@H](NC(=O)CCCc2ccc(I)cc2)C(C)(C)SSC(C)(C)[C@@H](C(=O)N[C@@H](Cc2ccc(OCCCCC[N+](C)(C)C)cc2)C(=O)N[C@@H](Cc2ccc3ccccc3c2)C(=O)NC2(C(=O)N[C@@H](CCCCNC(=O)COc3ccc(-c4ccc(F)cc4F)cc3C(=O)O)C(=O)N[C@@H](CC(N)=O)C(=O)N[C@@H](Cc3cccnc3)C(=O)N(C)CC(N)=O)CCOCC2)NC1=O [compound 525, IPBCO-Pen(3)-N-T-7MeW-K(Ac)-Pen(3)-TMAPF-2Nal-THP-K(DFN)-N-3Pya-Sar-CONH2]
EPSA [1]: 195 A^2 | IC50 (IL-23R): 51 nM

CC(=O)NCCCC[C@@H]1NC(=O)[C@H](Cc2c[nH]c3c(C)cccc23)NC(=O)[C@H]([C@@H](C)O)NC(=O)[C@H](CC(N)=O)NC(=O)[C@@H](NC(C)=O)C(C)(C)SSC(C)(C)[C@@H](C(=O)N[C@@H](Cc2ccc(OCCCCC[N+](C)(C)C)cc2)C(=O)N[C@@H](Cc2ccc3ccccc3c2)C(=O)NC2(C(=O)N[C@@H](CCCCNC(=O)COc3ccc(-c4ccc(F)cc4F)cc3C(=O)O)C(=O)N[C@@H](CC(N)=O)C(=O)N[C@@H](Cc3cccnc3)C(=O)N(C)CC(N)=O)CCOCC2)NC1=O [compound 526, MeCO-Pen(3)-N-T-7MeW-K(Ac)-Pen(3)-TMAPF-2Nal-THP-K(DFN)-N-3Pya-Sar-CONH2]
EPSA [1]: 184 A^2 | IC50 (IL-23R): 6.1 nM

CC(=O)NCCCC[C@@H]1NC(=O)[C@H](Cc2c[nH]c3c(C)cccc23)NC(=O)[C@H]([C@@H](C)O)NC(=O)[C@H](CC(N)=O)NC(=O)[C@@H](NC(=O)COc2ccc(-c3ccc(F)cc3F)cc2C(=O)O)C(C)(C)SSC(C)(C)[C@@H](C(=O)N[C@@H](Cc2ccc(OCCCCC[N+](C)(C)C)cc2)C(=O)N[C@@H](Cc2ccc3ccccc3c2)C(=O)NC2(C(=O)N[C@@H](CCCCNC(C)=O)C(=O)N[C@@H](CC(N)=O)C(=O)N[C@@H](Cc3cccnc3)C(=O)N(C)CC(N)=O)CCOCC2)NC1=O [compound 527, DFNCO-Pen(3)-N-T-7MeW-K(Ac)-Pen(3)-TMAPF-2Nal-THP-K(Ac)-N-3Pya-Sar-CONH2]
EPSA [1]: 189 A^2 | IC50 (IL-23R): 3.7 nM

CC(=O)N(C)CCCC[C@@H]1NC(=O)[C@H](Cc2c[nH]c3c(C)cccc23)NC(=O)[C@H]([C@@H](C)O)NC(=O)[C@H](CC(=O)N(C)C)NC(=O)[C@@H](NC(=O)CCOCCOCC[N+](C)(C)C)C(C)(C)SSC(C)(C)[C@@H](C(=O)N[C@@H](Cc2ccc(OCCCCCN)cc2)C(=O)N[C@@H](Cc2ccc3ccccc3c2)C(=O)NC2(C(=O)N[C@@H](CCCCN(C)C(C)=O)C(=O)N[C@@H](CC(N)=O)C(=O)N[C@@H](Cc3cccnc3)C(=O)N(C)CC(=O)N(C)C)CCOCC2)NC1=O [compound 528, cPEG3aCO-Pen(3)-N(N(Me)2)-T-7MeW-K(NMeAc)-Pen(3)-APF-2Nal-THP-K(NMeAc)-N-3Pya-Sar-CON(Me)2] ({Me3N+(CH2)2O(CH2)2O(CH2)2CO}-[Pen]D(NMe2)T[Trp(7-Me)][Lys(Me)](Ac)[Pen]Y(X58)[2Nal][Thp][Lys(Me)](Ac)N[3Pal][Sar]-NMe2; disulfide 1-6)
EPSA [1]: 163 A^2 | IC50 (IL-23R): 3.8 nM

CC(=O)NCCCC[C@@H]1NC(=O)[C@H](Cc2c[nH]c3c(C)cccc23)NC(=O)[C@H]([C@@H](C)O)NC(=O)[C@H](CC(N)=O)NC(=O)[C@@H](NC(=O)[C@@H](CCCNC(=N)N)NC(C)=O)C(C)(C)SSC(C)(C)[C@@H](C(=O)N[C@@H](Cc2ccc(OCCCCC[N+](C)(C)C)cc2)C(=O)N[C@@H](Cc2ccc3ccccc3c2)C(=O)NC2(C(=O)N[C@@H](CCCCNC(C)=O)C(=O)N[C@@H](CC(N)=O)C(=O)N[C@@H](Cc3cncc(C)c3)C(=O)N(C)CC(N)=O)CCOCC2)NC1=O [compound 532, MeCO-r-Pen(3)-N-T-7MeW-K(Ac)-Pen(3)-TMAPF-2Nal-THP-K(Ac)-N-5MePyridinAla-Sar-CONH2] (Ac-[dR][Pen]NT[Trp(7-Me)]K(Ac)[Pen]Y(X3)[2Nal][Thp]K(Ac)N[3Pal(5-Me)][Sar]-NH2; disulfide 2-7)
EPSA [1]: 171 A^2 | IC50 (IL-23R): 0.9 nM

CC(=O)NCCCC[C@@H]1NC(=O)[C@H](Cc2c[nH]c3c(C)cccc23)NC(=O)[C@H]([C@@H](C)O)NC(=O)[C@H](CC(N)=O)NC(=O)[C@@H](NC(=O)[C@@H](CCCC[N+](C)(C)C)NC(C)=O)C(C)(C)SSC(C)(C)[C@@H](C(=O)N[C@@H](Cc2ccc(OCCN)cc2)C(=O)N[C@@H](Cc2ccc3ccccc3c2)C(=O)NC2(C(=O)N[C@@H](CCCCNC(C)=O)C(=O)N[C@@H](CC(N)=O)C(=O)N[C@@H](Cc3cncc(C)c3)C(=O)N(C)CC(N)=O)CCOCC2)NC1=O [compound 533, MeCO-k(Me)3-Pen(3)-N-T-7MeW-K(Ac)-Pen(3)-AEF-2Nal-THP-K(Ac)-N-5MePyridinAla-Sar-CONH2] (Ac-[dLys(Me3)][Pen]NT[Trp(7-Me)]K(Ac)[Pen][AEF][2Nal][Thp]K(Ac)N[3Pal(5-Me)][Sar]-NH2; disulfide 2-7)
EPSA [1]: 170 A^2 | IC50 (IL-23R): 1.6 nM

CC(=O)NCCCC[C@@H]1NC(=O)[C@H](Cc2c[nH]c3c(C)cccc23)NC(=O)[C@H]([C@@H](C)O)NC(=O)[C@H](CC(N)=O)NC(=O)[C@@H](NC(=O)[C@@H](CCCC[N+](C)(C)C)NC(C)=O)C(C)(C)SSC(C)(C)[C@@H](C(=O)N[C@@H](Cc2ccc(OCCCCC[N+](C)(C)C)cc2)C(=O)N[C@@H](Cc2ccc3ccccc3c2)C(=O)NC2(C(=O)N[C@@H](CCC(=O)O)C(=O)N[C@@H](CC(N)=O)C(=O)N[C@@H](Cc3cncc(C)c3)C(=O)N(C)CC(N)=O)CCOCC2)NC1=O [compound 534, MeCO-k(Me)3-Pen(3)-N-T-7MeW-K(Ac)-Pen(3)-TMAPF-2Nal-THP-E-N-5MePyridinAla-Sar-CONH2] (Ac-[dLys(Me3)][Pen]NT[Trp(7-Me)]K(Ac)[Pen]Y(X3)[2Nal][Thp]EN[3Pal(5-Me)][Sar]-NH2; disulfide 2-7)
EPSA [1]: 172 A^2 | IC50 (IL-23R): 2.1 nM

CC(=O)NCCCC[C@@H]1NC(=O)[C@H](Cc2c[nH]c3c(C)cccc23)NC(=O)[C@H]([C@@H](C)O)NC(=O)[C@H](CC(N)=O)NC(=O)[C@@H](NC(C)=O)C(C)(C)SSC(C)(C)[C@@H](C(=O)N[C@@H](Cc2ccc(OCCCCC[N+](C)(C)C)cc2)C(=O)N[C@@H](Cc2ccc3ccccc3c2)C(=O)NC2(C(=O)N[C@@H](CCCCNC(C)=O)C(=O)N[C@@H](CC(N)=O)C(=O)N[C@@H](Cc3cccnc3)C(=O)N(C)CC(N)=O)CCCCC2)NC1=O [compound 538, MeCO-Pen(3)-N-T-7MeW-K(Ac)-Pen(3)-TMAPF-2Nal-Achx-K(Ac)-N-3Pya-Sar-CONH2]
EPSA [1]: 163 A^2 | IC50 (IL-23R): 3.5 nM
